Results: patent publication US20050197350A1, “Novel quinoline, tetrahydroquinazoline, and pyrimidine derivatives and methods of treatment related to the use thereof” (TAISHO PHARMACEUTICAL CO., LTD., priority 2003, published 2005)

System: MCH receptors
Assay: MCH receptor activity class (method not given)
Details: not given

Question: Which class does the source give for `Cc1cccc(C(=O)N[C@H]2CC[C@@H](Nc3cc(C)c4ccccc4n3)CC2)c1` [Example 2543, 3-methyl-N-{cis-4-[(4-methylquinolin-2-yl)amino]cyclohexyl}benzamide] here?
Answer: 1

Same assay, conditions: MCH receptor activity class 1-3 (percent of control at 10^-7 M or IC50)

Question: How did the class turn out when `CN(C)c1cc(N[C@H]2CC[C@@H](NC(=S)NC3CC4CCC3C4)CC2)nc2ccccc12` (relative stereo) [compound 2310] was run?
Answer: 3 (Class 3 The value of percent of control at 10^−7 M was more than 60% or the value of IC50 was more than 200 nM.)

Question: `CN(C)c1ccnc(N[C@H]2CC[C@@H](NC(=S)NC3CC4CCC3C4)CC2)n1` (relative stereo) [compound 2355] was tested. Which class did it give?
Answer: 3 (Class 3 The value of percent of control at 10^−7 M was more than 60% or the value of IC50 was more than 200 nM.)

Question: How did the class turn out when `CCOC(=O)[C@H](CC(C)C)NC(=O)NC[C@H]1CC[C@@H](Nc2cc(N(C)C)c3ccccc3n2)CC1` (relative stereo) [compound 2363] was run?
Answer: 3 (Class 3 The value of percent of control at 10^−7 M was more than 60% or the value of IC50 was more than 200 nM.)

Question: With `CCOC(=O)[C@H](CC(C)C)NC(=O)NC[C@H]1CC[C@@H](Nc2nccc(N(C)C)n2)CC1` (relative stereo) [compound 2409] as the compound, how does the class read?
Answer: 3 (Class 3 The value of percent of control at 10^−7 M was more than 60% or the value of IC50 was more than 200 nM.)

Question: For `CCOC(=O)[C@H](CC(C)C)NC(=O)NC[C@H]1CC[C@@H](Nc2nc3c(c(N(C)C)n2)CCCC3)CC1` (relative stereo) [compound 2455], which class is on record?
Answer: 2 (Class 2: The value of percent of control at 10^−7 M was from 40% to 60% or the value of IC′50 was from 50 nM to 200 nM.)

Same assay, conditions: MCH receptor; class by percent of control at 10^-7 M or IC50

Question: Which class does the source give for `CC(NC(=S)N[C@H]1CC[C@@H](Nc2nc3c(c(N(C)C)n2)CCCC3)CC1)c1ccccc1` (relative stereo) [compound 2024] here?
Answer: 3 (Class 3 The value of percent of control at 10^−7 M was more than 60% or the value of IC50 was more than 200 nM.)

Question: How did the class turn out when `CN(C)c1nc(N[C@H]2CC[C@@H](NC(=S)NC3CC4C=CC3C4)CC2)nc2c1CCCC2` (relative stereo) [compound 2067] was run?
Answer: 3 (Class 3 The value of percent of control at 10^−7 M was more than 60% or the value of IC50 was more than 200 nM.)

Same assay, conditions: class by percent of control at 10^-7 M or IC50

Question: For `CCOC(=O)[C@H](CC(C)C)NC(=O)N[C@H]1CC[C@@H](Nc2cc(N(C)C)c3ccccc3n2)CC1` (relative stereo) [compound 2093], which class is on record?
Answer: 3 (Class 3 The value of percent of control at 10^−7 M was more than 60% or the value of IC50 was more than 200 nM.)

Question: Which class does the source give for `COC(=O)[C@H](CCSC)NC(=O)N[C@H]1CC[C@@H](Nc2cc(N(C)C)c3ccccc3n2)CC1` (relative stereo) [compound 2129] here?
Answer: 3 (Class 3 The value of percent of control at 10^−7 M was more than 60% or the value of IC50 was more than 200 nM.)

Question: For `CC(NC(=O)N[C@H]1CC[C@@H](Nc2cc(N(C)C)c3ccccc3n2)CC1)c1cccc2ccccc12` (relative stereo) [compound 2134], which class is on record?
Answer: 1 (Class 1: The value of percent of control at 10^−7 M was less than 40% or the value of IC50 was less than 50 nM.)

Question: How did the class turn out when `COC(=O)[C@H](Cc1ccccc1)NC(=O)N[C@H]1CC[C@@H](Nc2cc(N(C)C)c3ccccc3n2)CC1` (relative stereo) [compound 2135] was run?
Answer: 2 (Class 2: The value of percent of control at 10^−7 M was from 40% to 60% or the value of IC′50 was from 50 nM to 200 nM.)

Question: Which class does the source give for `CC(NC(=O)N[C@H]1CC[C@@H](Nc2cc(N(C)C)c3ccccc3n2)CC1)c1ccccc1` (relative stereo) [compound 2136] here?
Answer: 3 (Class 3 The value of percent of control at 10^−7 M was more than 60% or the value of IC50 was more than 200 nM.)

Question: For `CC(NC(=O)N[C@H]1CC[C@@H](Nc2cc(N(C)C)c3ccccc3n2)CC1)c1ccc(Br)cc1` (relative stereo) [compound 2158], which class is on record?
Answer: 3 (Class 3 The value of percent of control at 10^−7 M was more than 60% or the value of IC50 was more than 200 nM.)

Question: Which class does the source give for `CCOC(=O)[C@H](Cc1ccccc1)NC(=O)N[C@H]1CC[C@@H](Nc2cc(N(C)C)c3ccccc3n2)CC1` (relative stereo) [compound 2160] here?
Answer: 3 (Class 3 The value of percent of control at 10^−7 M was more than 60% or the value of IC50 was more than 200 nM.)

Question: Which class does the source give for `CCOC(=O)[C@H](CC(C)C)NC(=O)N[C@H]1CC[C@@H](Nc2nccc(N(C)C)n2)CC1` (relative stereo) [compound 2183] here?
Answer: 3 (Class 3 The value of percent of control at 10^−7 M was more than 60% or the value of IC50 was more than 200 nM.)

Question: Which class does the source give for `COC(=O)[C@H](CCSC)NC(=O)N[C@H]1CC[C@@H](Nc2nccc(N(C)C)n2)CC1` (relative stereo) [compound 2219] here?
Answer: 3 (Class 3 The value of percent of control at 10^−7 M was more than 60% or the value of IC50 was more than 200 nM.)

Question: For `CC(NC(=O)N[C@H]1CC[C@@H](Nc2nccc(N(C)C)n2)CC1)c1cccc2ccccc12` (relative stereo) [compound 2224, N-(cis-4-{[4-(dimethylamino)pyrimidin-2-yl]amino}cyclohexyl)-N′-[1-(1-naphthyl)ethyl]urea], which class is on record?
Answer: 1 (Class 1: The value of percent of control at 10^−7 M was less than 40% or the value of IC50 was less than 50 nM.)

Question: How did the class turn out when `COC(=O)[C@H](Cc1ccccc1)NC(=O)N[C@H]1CC[C@@H](Nc2nccc(N(C)C)n2)CC1` (relative stereo) [compound 2225] was run?
Answer: 3 (Class 3 The value of percent of control at 10^−7 M was more than 60% or the value of IC50 was more than 200 nM.)

Question: Which class does the source give for `CC(NC(=O)N[C@H]1CC[C@@H](Nc2nccc(N(C)C)n2)CC1)c1ccccc1` (relative stereo) [compound 2226] here?
Answer: 3 (Class 3 The value of percent of control at 10^−7 M was more than 60% or the value of IC50 was more than 200 nM.)

Question: How did the class turn out when `CC(NC(=O)N[C@H]1CC[C@@H](Nc2nccc(N(C)C)n2)CC1)c1ccc(Br)cc1` (relative stereo) [compound 2248] was run?
Answer: 3 (Class 3 The value of percent of control at 10^−7 M was more than 60% or the value of IC50 was more than 200 nM.)

Question: With `CCOC(=O)[C@H](Cc1ccccc1)NC(=O)N[C@H]1CC[C@@H](Nc2nccc(N(C)C)n2)CC1` (relative stereo) [compound 2250] as the compound, how does the class read?
Answer: 3 (Class 3 The value of percent of control at 10^−7 M was more than 60% or the value of IC50 was more than 200 nM.)

Question: Which class does the source give for `CCOC(=O)c1cccc(NC(=S)N[C@H]2CC[C@@H](Nc3nc4c(c(N(C)C)n3)CCCC4)CC2)c1` [Example 1773] here?
Answer: 3 (Class 3 The value of percent of control at 10^−7 M was more than 60% or the value of IC50 was more than 200 nM.)

Question: How did the class turn out when `CN(C)c1nc(N[C@H]2CC[C@@H](NC(=S)Nc3ccc(Cl)cc3C(F)(F)F)CC2)nc2c1CCCC2` [Example 1774] was run?
Answer: 2 (Class 2: The value of percent of control at 10^−7 M was from 40% to 60% or the value of IC′50 was from 50 nM to 200 nM.)

Same assay, conditions: class by percent of control at 10^−7 M or IC50

Question: Which class does the source give for `Cc1cnc(N[C@H]2CC[C@@H](C(=O)NC(C)c3ccc(Br)cc3)CC2)nc1N(C)C` (relative stereo) [compound 2779] here?
Answer: 1 (Class 1: The value of percent of control at 10^−7 M was less than 40% or the value of IC50 was less than 50 nM.)

Question: `Cc1cnc(N[C@H]2CC[C@@H](C(=O)N[C@@H](C)c3cccc4ccccc34)CC2)nc1N(C)C` (relative stereo) [compound 2783, cis-4-{[4-(dimethylamino)-5-methylpyrimidin-2-yl]ainino}-N-[(1S)-1-(1-naphthyl)ethyl]cyclohexanecarboxamide] was tested. Which class did it give?
Answer: 1 (Class 1: The value of percent of control at 10^−7 M was less than 40% or the value of IC50 was less than 50 nM.)

Question: `Cc1nc(N[C@H]2CC[C@@H](NC(=O)C(O)c3cc(F)cc(F)c3)CC2)nc(N(C)C)c1C` (relative stereo) [compound 2829, 2-(3,5-difluorophenyl)-N-(cis-4-{[4-(dimethylamino)-5,6-dimethylpyrimidin-2-yl]amino}cyclohexyl)-2-hydroxyacetamide] was tested. Which class did it give?
Answer: 2 (Class 2: The value of percent of control at 10^−7 M was from 40% to 60% or the value of IC′50 was from 50 nM to 200 nM.)

Question: For `Cc1cnc(N[C@H]2CC[C@@H](NC(=O)C(C)c3ccc(Cl)cc3)CC2)nc1N(C)C` (relative stereo) [compound 2874, 2-(4-chlorophenyl)-N-(cis-4-{[4-(dimethylamino)-5-methylpyrimidin-2-yl]amino}cyclohexyl)propanamide], which class is on record?
Answer: 1 (Class 1: The value of percent of control at 10^−7 M was less than 40% or the value of IC50 was less than 50 nM.)

Question: How did the class turn out when `Cc1cnc(N[C@H]2CC[C@@H](NC(=O)C(O)c3ccc(Cl)cc3)CC2)nc1N(C)C` (relative stereo) [compound 2876, 2-(4-chlorophenyl)-N-(cis-4-{[4-(dimethylamino)-5-methylpyrimidin-2-yl]amino}cyclohexyl)-2-hydroxyacetamide] was run?
Answer: 1 (Class 1: The value of percent of control at 10^−7 M was less than 40% or the value of IC50 was less than 50 nM.)

Question: For `Cc1cnc(N[C@H]2CC[C@@H](NC(=O)C[S+]([O-])c3ccccc3C(F)(F)F)CC2)nc1N(C)C` (relative stereo) [compound 2880], which class is on record?
Answer: 1 (Class 1: The value of percent of control at 10^−7 M was less than 40% or the value of IC50 was less than 50 nM.)

Question: Which class does the source give for `Cc1cnc(N[C@H]2CC[C@@H](NC(=O)C[S+]([O-])c3ccccc3Cl)CC2)nc1N(C)C` (relative stereo) [compound 2881, 2-[(2-chlorophenyl)sulfinyl]-N-(cis-4-{[4-(dimethylamino)-5-methylpyrimidin-2-yl]amino}cyclohexyl)acetamide] here?
Answer: 1 (Class 1: The value of percent of control at 10^−7 M was less than 40% or the value of IC50 was less than 50 nM.)

Question: With `Cc1cnc(N[C@H]2CC[C@@H](NC(=O)C[S+]([O-])c3cccc(Br)c3)CC2)nc1N(C)C` (relative stereo) [compound 2882, 2-[(3-bromophenyl)sulfinyl]-N-(cis-4-{[4-(dimethylamino)-5-methylpyrimidin-2-yl]amino}cyclohexyl)acetamide] as the compound, how does the class read?
Answer: 1 (Class 1: The value of percent of control at 10^−7 M was less than 40% or the value of IC50 was less than 50 nM.)

Question: How did the class turn out when `Cc1cnc(N[C@H]2CC[C@@H](NC(=O)C[S+]([O-])c3ccc(F)c(F)c3)CC2)nc1N(C)C` (relative stereo) [compound 2883, 2-[(3,4-difluorophenyl)sulfinyl]-N-(cis-4-{[4-(dimethylamino)-5-methylpyrimidin-2-yl]amino}cyclohexyl)acetamide] was run?
Answer: 2 (Class 2: The value of percent of control at 10^−7 M was from 40% to 60% or the value of IC′50 was from 50 nM to 200 nM.)
